Like-named read-outs stand apart in the source and are kept apart here.

This is an account of results in patent publication US20060106099A1, “Novel inhibitors of ubiquitin isopeptidases” (priority 2002, published 2006).

Series [1] relates to ubiquitin isopeptidases. Nature of the series: Ubiquitin isopeptidase activity, Ub-PEST substrate, lysates of treated RKO and HCT 116 cells. It is filed as cell-based, human. The following applies: cells treated 6, 20 or 60 μM, 12 h. How it is done: A) Inhibition of isopeptidase proteolysis of Ub-PEST substrate. RKO and HCT 116 cells were treated with DMSO vehicle, 6, 20, or 60 μM of Δ12-PGJ2, DBA, NSC-302979, or curcumin, 60 μM PGB1, 60 μM NSC-156236, or 60 μM DPTP for 12 h, 37° C. Cell lysates from each treatment were incubated with Ub-PEST, as described in materials and methods. Samples were fractionated by SDS-PAGE and proteins detected with ubiquitin epitopes immunochemically (HCT 116 ^+/+ western blot shown as example of raw data). […] B) Inhibition of isopeptidase activity by test panel compounds. Isopeptidase activity was determined by measuring via densitometry, the amount of Ub generated by isopeptidase cleavage of Ub-PEST. Bar graph patterns are DMSO vehicle (black), Δ12-PGJ2 (hatched), DBA (horizontal lines), NSC-302979 (white), PGB1 (diagonally downward right lines), and NSC-156236 (diagonally downward left lines). The amount of Ub generated in the vehicle treated sample (panel A, lane 2) is arbitrarily designated 100%.
Cellular isopeptidase enzymatic activity was measured with two assays that used different substrates. In one assay ubiquitin-PEST (Ub-PEST) was used, a full-length ubiquitin molecule with an 18 amino acid c-terminal peptide extension (total mass=10.5 kDa). Ubiquitin isopeptidases specifically cleave the 18 amino acid peptide extension, releasing full-length ubiquitin (8.5 kDa).
Briefly, 6×10^5 cells were incubated with 0-60 μM of test compounds for 12 hrs. Cells were lysed in 50 μL of 25 mM HEPES, 5 mM EDTA, 0.1% CHAPS, 5 mM ATP, pH 7.5. The protein concentration of each sample was adjusted to 0.3 mg/mL and incubated with 50 μg/mL Ub-PEST for 45 minutes at 25° C. Under these conditions, Ub-PEST hydrolysis occurs at a linear rate. 20 μL samples were mixed with 20 μL 2× Laemmli buffer, boiled briefly, and fractionated by SDSPAGE. Isopeptidase activity was monitored by determining the amount of product (8.5 kDa ubiquitin) formation.

The test system of series [2] is ubiquitin isopeptidases. Briefly: Ubiquitin isopeptidase activity, z-LRGG-AMC substrate, lysates of treated RKO and HCT 116 cells. It is filed as cell-based, human. The following applies: cells treated 6, 20 or 60 μM, 12 h. How it is done:
RKO (upper) and HCT 116 ^+/+ cells (lower) were treated with DMSO vehicle, 6, 20, or 60 μM of Δ12-PGJ2, DBA, NSC-302979, or curcumin, 60 μM PGB1, 60 μM NSC-156236, or 60 μM DPTP for 12 h at 37° C. Cell lysates (0.5 mg/mL) from each treatment were incubated with the isopeptidase substrate, z-LRGG-AMC, for 3 h, 37° C. The amount of AMC cleaved by isopeptidase was determined fluorometrically, as described in Materials and Methods.
The second assay used a fluorescent tetrapeptide, z-LRGG-AMC, as a substrate that mimics the carboxy-terminus of ubiquitin. Isopeptidase activity hydrolyzes the bond between the c-terminal glycine and the fluorophore. This tetrapeptide also undergoes slow proteolysis by the catalytic subunit of the proteasome. To minimize this background rate of proteolysis cell lysates were incubated with 30 μM MG115 for 30 minutes at 4° C., prior to substrate incubation (>90% proteasome inhibition). Cells were teeated as above, lysed in 250 μL of lysis buffer per sample, and adjusted protein concentration to 0.5 mg/mL prior to incubation with MG115. Next, z-LRGG-AMC substrate was added and fluorescence was quantified of the AMC moiety cleaved by isopeptidase action.

For series [3], the system named is polyubiquitin conjugates in RKO-E6 cells. Nature of the series: Accumulation of polyubiquitin in RKO-E6 cells (immunoblot). The following applies: EC80 or 60 μM, 6-24 h. It is filed as cell-based, human. How it is done: (§1) A) Accumulation of polyubiquitin. RKO-E6 cells were treated with DMSO vehicle for 24 h, 37° C., or with the concentrations of test compounds that gave 80% cell death (as determined by cell viability assay at 48 h) for 6, 12, or 24 h, 37° C. […] Schematic depicting p53 degradation via the proteasome pathway in RKO cells versus RKO-E6 cells. The activity of the HPV E6 oncoprotein hastens p53 degradation in RKO-E6 cells. ii. RKO and RKO-E6 cells were treated with vehicle, etoposide (50 μM), MG115 (20 μM), Δ12-PGJ2 (60 μM), NSC-302979 (20 μM, DBA (20 μM), curcumin (60 μM), PGB1 (60 μM), NSC-156236, (60 XM)or DPTP 60 μM for 6 h, 37° C. Lysates were fractionated by SDS-PAGE and their p53 content determined immunochemically. iii. p53 levels were measured by densitometry and the ratio of p53 protein in RKO-E6 cells/RKO cells calculated.
(§2) The medium was removed and cells lysed in 50 mM Tris, pH 7.4, 100 mM NaCl, 2 mM EDTA with 0.1% SDS, 0.1% deoxycholate, 1× complete protease inhibitor mixture. Protein concentration was measured by the Bradford method. Equal portions of the total cell lysate were fractionated from each sample (12.5 μg of protein) by SDS-PAGE. Proteins were transferred to poly(vinylidene difluoride) blocked with 5% (w/v) nonfat dry milk in Trisbuffered saline [20 mM Tris-HCl, pH 7.5, 100 mM sodium chloride, 0.1% (v/v) Tween 20]. Proteins were detected immunochemically by using primary antibodies directed against p53 (1:4000) or ubiquitin (1:1000), followed by horseradish peroxidase-conjugated secondary antibodies (1:4000). Antigen-antibody complexes were detected with enhanced chemiluminescence reagents. Gels were scanned and quantified intensities using Kodak 1D Image Analysis Software.

Series [4] deals with p53. Nature of the series: p53 accumulation, ratio RKO-E6 cells/RKO cells (immunoblot, densitometry). The format is cell-based, human. The following applies: 6 h; etoposide 50 μM, MG115, NSC-302979, DBA 20 μM, others 60 μM. How it is done:
as §1, §2

For series [5], the system named is cell lines with Wild type p53. The following applies: analysis according to O'Connor et al., 1997; cited from earlier work.
In series [6] the test system is cell lines with mutant/deleted p53. The following applies: mean of 41-42 cell lines with mutant/deleted p53; read-out: Mutant p53 Mean LC50; cited from earlier work.
Series [7] deals with RKO cells. Nature of the series: MTT cell viability assay, RKO cells. The following applies: 48 h.
Series [8] relates to RKO-E6 cells. Nature of the series: MTT cell viability assay, RKO-E6 cells.
Experimental: (§5) Cell viability was measured with MTT reagent as described in materials and methods.
(§6) Cell viability was detected by the MTT assay. Briefly, 1×10^5 cells were incubated per well of a sterile, 96-well assay plate with 0-60 μM of test compounds for 48 hours. MTT reagent was added to each well, final concentration of 0.5 mg/mL, and incubated for an additional 3 hours. The media was aspirated and remaining MTT reagent from each well and added 100 μL of HCl:isopropanol (1:24). The absorbance of each sample was measured at 405 nm.
Series [9] concerns HCT 116 +/+ cells. Nature of the series: MTT cell viability assay, HCT 116 p53 +/+ cells.
Experimental: as §5, §6
The test system of series [10] is HCT 116 −/− cells. Briefly: MTT cell viability assay, HCT 116 p53 −/− cells. The following applies: Homo sapiens, HCT-116, 48 h, read-out: Cytotoxic Potency (EC50) HCT −/−.
Experimental: as §5, §6
The test system of series [11] is ubiquitin isopeptidases. Nature of the series: In vitro isopeptidase activity in HCT 116 lysates, Ub-PEST. The format is biochemical, human. The following applies: HCT 116 lysates, 45 min. How it is done: Isopeptidase Assay. It was hypothesized that the punaglandins would inhibit ubiquitin-isopeptidase activity of the proteasome pathway as does the prostaglandin, Δ^12-PGJ2 (1), but with greater potency because of the chlorinated C-10. To validate this theory, cellular isopeptidase enzymatic activity was measured in vitro after treatment with individual punaglandins, PNG 2 (6), PNG 3 (7), and Z-PNG 4 (9) and in vivo after individual treatment with PNG 4 (8) and PNG 6 (10). This activity was determined utilizing the simple isopeptidase substrate, ubiquitin-PEST (Ub-PEST), a full/length ubiquitin (Ub) molecule fused with an 18-amino acid C-terminal peptide extension that most isopeptidases use as a substrate. The polypeptide extension contains regions rich in Pro (P), Glu (E), Ser (S), and Thr (T) residues called PEST motifs that are responsible for rapid degradation of these and other unstable proteins. Ub isopeptidases specifically cleave this peptide extension, yielding free, full-length Ub. Both the fused Ub-PEST (10.5 kDa) and the cleaved, free Ub (8.5 kDa) can be observed via immunochemical detection.
In Vitro Isopeptidase Activity. PNG 2 (6), PNG 3 (7), and Z-PNG 4 (9) were initially analyzed for isopeptidase activity in vitro in HCT 116 lysates. Cells were lysed with isopeptidase activity buffer and protein concentration adjusted to 0.3 mg/mL per sample. Each sample was subsequently incubated with 2 μM, 6 μM, 20 μM, 60 μM, or 200 μM of PNG 2 (6), PNG 3 (7), Z-PNG 4 (9), Δ^12-PGJ2 (1), and PGA1 (2) in addition to 50 μg/ml of Ub-PEST. Negative control cells were treated with vehicle (0.5% DMSO) and equivalent Ub-PEST. […] The amount of fused Ub-PEST and free Ub product was determined by SDS-PAGE fractionation.

Series [12] relates to HCT 116 (p53 wt). Nature of the series: MTS cytotoxicity, HCT 116 (p53 wt). The following applies: Homo sapiens, 48 h. The format is cell-based. An excerpt:
(§3) Cytotoxicity in Human Colon Tumor (HCT) Cell Lines. To determine if punaglandins elicit cytotoxicity independently of the tumor-suppressor p53, as do other dienone prostaglandins, several cytotoxicity assays were employed. First, cell death effects of all isolated punaglandins were investigated in pairs of isogenic colon cancer cell lines, the HCT 116^+/+ competent cell line and HCT 116^−/− null cell lines. HCT 116^+/+ cells are homozygous for p53^+/+ and p21^+/+; where as, HCT 116^−/− cells lack both alleles for p53 (p53^−/−) or p21 (p21^−/−).
(§4) Each cell line was seeded simultaneously in 96-well plates and incubated for 24 h before treatment with individual punaglandins at various concentrations for 48 additional h. Cytotoxicity was determined using MTS and absorbances were recorded at 490 nm. Half maximal effective concentrations (EC50) and Log EC50s were calculated from a concentration-response curve generated using GraphPad Prism (Table 1).

Series [13] has as its system HCT 116 (p53^−/−). Nature of the series: MTS cytotoxicity, HCT 116 (p53−/−). The format is cell-based. The following applies: Homo sapiens, log of EC50 in μM, 48 h, read-out: Log EC50 +/− Standard Error of Log EC50, HCT 116 (p53−/−) (converted).
From the text: as §3, §4

The subject of series [14] is HCT 116 (p21 wt). Nature of the series: MTS cytotoxicity, HCT 116 (p21 wt). It is filed as cell-based. The following applies: Homo sapiens, log of EC50 in μM, 48 h, read-out: Log EC50 +/− Standard Error of Log EC50, HCT 116 (p21 wt) (converted).
From the text: as §3, §4

Series [15] has as its system HCT 116 (p21^−/−). Briefly: MTS cytotoxicity, HCT 116 (p21−/−). The format is cell-based. The following applies: Homo sapiens, log of EC50 in μM, 48 h, read-out: Log EC50 +/− Standard Error of Log EC50, HCT 116 (p21−/−) (converted).
From the text: as §3, §4

The mark [16] stands for this setting: log of EC50 in μM, read-out: Log EC50 +/− Standard Error of Log EC50, HCT 116 (p53 wt) (converted).

Take `COc1cc(/C=C/C(=O)CC(=O)/C=C/c2ccc(O)c(OC)c2)ccc1O` [Curcumin, curcumin]: in series [1], the “inhibition of isopeptidase cleavage of Ub-PEST” value was “inhibited isopeptidase activity in a concentration dependent manner”. The “inhibition of z-LRGG-AMC hydrolysis by ubiquitin isopeptidases” value in [2] was “inhibited ubiquitin isopeptidase activity”. For the same compound, the “cellular accumulation of polyubiquitin conjugates” value in series [3] is “protein species with polyubiquitin conjugation accumulated in cells”. Also, in series [4], the “ratio of p53 protein [RKO-E6 cells/RKO cells]” value is “approached unity”. For the same compound, in [5], the “p53 dependence in NCI 60 cell line cancer screening data” value is on record as “act independently of p53”. In [6], the CC50 was 68000 nM. In [7] (MTT, isogenic pair), the “cell death in RKO compared with RKO-E6 cells” value was “caused cell death with equal potency and efficacy”. The EC50 was 12500 ± 5900 nM in [7] (Homo sapiens, RKO, read-out: Cytotoxic Potency (EC50) RKO); 14900 ± 8500 nM in [8] (Homo sapiens, RKOE6, 48 h, read-out: Cytotoxic Potency (EC50) RKO-E6); 9700 ± 1100 nM in series [9] (Homo sapiens, HCT-116, 48 h, read-out: Cytotoxic Potency (EC50) HCT +/+); 8600 ± 1300 nM in [10]. Besides, the “EC80, concentration that gave 80% cell death” value in series [8] (cell viability assay at 48 h, RKO-E6 cells) worked out at 17000 nM. Moreover, the “cell death in HCT 116 +/+ compared with HCT 116 −/− cells” value in series [9] (48 h, MTT, isogenic pair) is “caused cell death with equal potency”.
For the compound `CC/C=C\C/C=C\C[C@@]1(O)C=C(Cl)C(=O)/C1=C/[C@H](OC(C)=O)[C@H](CCCC(=O)OC)OC(C)=O` [PNG 3], the “concentration at which inhibition of Ub-PEST degradation is initially observed” value in series [11] worked out at 20 µM. Besides, in series [11], the “concentration of complete (total) inhibition of Ub-PEST degradation” value stood at 60 µM. Moreover, the EC50 in series [12] (average over the three compounds, read-out: average EC50 of PNG 3, PNG 4 and PNG 6, cytotoxicity in HCT 116 cell lines) is approximately 0.35 µM; in series [12] (setting [16]) it was 0.324 µM; in series [13], 0.372 µM; in series [14] it was 0.288 µM; in series [15] it was 0.295 µM.
Turning to `CCCCC/C=C\C[C@@]1(O)C=C(Cl)C(=O)/C1=C\[C@H](OC(C)=O)[C@H](CCCC(=O)OC)OC(C)=O` [Z-PNG 4], the “concentration at which inhibition of Ub-PEST degradation is initially observed” value in series [11] was 20 µM. The “concentration of complete (total) inhibition of Ub-PEST degradation” value in series [11] worked out at 60 µM. In addition, the EC50 in series [12] (read-out: EC50, cytotoxicity in HCT 116 cell lines) was 0.03 µM; in series [12] (setting [16]) it was 0.0316 µM; in series [13], 0.0269 µM; in series [14], 0.0295 µM; in series [15], 0.0324 µM.
